Source: patent US9795139B2, “Molecules having pesticidal utility, and intermediates, compositions, and processes, related thereto” (priority 2015, dated 2017)

Key:
Assay type in all cases: in vivo
[1] = tested on: Beet Armyworm (Spodoptera exigua, LAPHEG); experiment: Bioassay on Beet Armyworm (BAW), 128-well diet tray assay; conditions: 168 h, 50 μg/cm^2 on artificial diet, second instar larvae, 25° C., five to seven days, average of eight wells, read-out: BAW % Control (or Mortality) rating
In short: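 Artificial diet surface-treated with 50 μg/cm^2 test molecule in 90:10 acetone-water, dried, then infested with one to five second instar larvae per well. Held covered and vented at 25° C., 14:10 light-dark for five to seven days; percent mortality recorded per well and averaged over eight wells.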

[2] = tested on: Cabbage Looper (Trichoplusia ni, TRIPNI); experiment: Bioassay on Cabbage Looper (CL), 128-well diet tray assay; conditions: 168 h, 50 μg/cm^2 on artificial diet, second instar larvae, 25° C., five to seven days, average of eight wells, read-out: CL % Control (or Mortality) rating
In short: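 Diet-incorporation-free surface assay: 50 μg/cm^2 compound in acetone-water (90:10), dried on diet; 1–5 2nd-instar larvae/well; 8 wells; vented cover; 25° C., 14:10 L:D, 5–7 d; % mortality averaged over wells.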

[3] = tested on: Yellow Fever Mosquito (Aedes aegypti, AEDSAE); conditions: about 1 day-old larvae, 96-well plate from 4000 ppm DMSO master, 3 days at room temperature
In short: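 Aedes aegypti larvae (about 1 day old) in liver-powder water were added to plates dispensed from DMSO master plates (4000 ppm stock) diluted with 90:10 water/acetone; six replicate plates per master. Lidded plates were held at room temperature for 3 days, then each well was scored for mortality.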

Which results are given for CC1(NC(=O)c2cc(NC(=O)[C@H]3[C@H](c4cc(Cl)cc(Cl)c4)C3(Cl)Cl)ccc2Cl)CC1 (relative stereo) [PF32, trans-2-Chloro-5-(2,2-dichloro-3-(3,5-dichloro-phenyl)cyclopropanecarboxamido)-N-(1-methylcyclopropyl)benzamide]?
mortality at 50 µg/cm2 [1]: 50 to 100%; mortality at 50 µg/cm2 [2]: 50 to 100%; YFM % Control (or Mortality) rating [3]: A (80-100)

With O=C(NC1CN(C(=O)CC(F)(F)F)C1)c1cc(NC(=O)[C@H]2[C@H](c3cc(Cl)cc(Cl)c3)C2(Cl)Cl)ccc1Cl (relative stereo) [PF12, trans-2-Chloro-5-(2,2-dichloro-3-(3,5-dichlorophenyl)cyclopropane-1-carboxamido)-N-(1-(3,3,3-trifluoropropanoyl)azetidin-3-yl)benzamide] as the molecule, how does the mortality at 50 µg/cm2 [1] read?
Its mortality at 50 µg/cm2 is 50 to 100%.

And the mortality at 50 µg/cm2 [2]?
Its mortality at 50 µg/cm2 is 50 to 100%.

What about the “YFM % Control (or Mortality) rating” value [3] of the same molecule?
Its value is “A (80-100)”.

How did the mortality at 50 µg/cm2 [1] turn out when O=C(NN1CC(CN2CCOCC2)OC1=O)c1cc(NC(=O)C2C(c3cc(Cl)cc(Cl)c3)C2(Cl)Cl)ccc1Cl (stereo not drawn) [PF41, trans-2-Chloro-5-(2,2-dichloro-3-(3,5-dichlorophenyl)cyclopropane-1-carbox-amido)-N-(5-(morpholinomethyl)-2-oxooxazolidin-3-yl)benzamide] was run?
The mortality at 50 µg/cm2 was 0 to 50%.

What about the mortality at 50 µg/cm2 [2] of the same molecule?
The mortality at 50 µg/cm2 was 50 to 100%.

And the “YFM % Control (or Mortality) rating” value [3]?
The value was “A (80-100)”.

How did the mortality at 50 µg/cm2 [1] turn out when O=C(N[C@@H]1CON(CC(F)(F)F)C1=O)c1cc(NC(=O)C2C(c3ccc(Cl)c(Cl)c3)C2(Cl)Cl)ccc1Cl (stereo in doubt) [Molecule F79, trans-2-Chloro-5-(2,2-dichloro-3-(3,4-dichlorophenyl)cyclopropane-1-carboxamido)-N—((R)-3-oxo-2-(2,2,2-trifluoroethyl)isoxazolidin-4-yl)benzamide] was run?
Its mortality at 50 µg/cm2 is 50 to 100%.

What about the mortality at 50 µg/cm2 [2] of the same molecule?
The mortality at 50 µg/cm2 was 50 to 100%.

What about the “YFM % Control (or Mortality) rating” value [3] of the same molecule?
Its value is “A (80-100)”.

Which mortality at 50 µg/cm2 [1] does the source give for N#CC1CCC(NC(=O)c2cc(NC(=O)[C@H]3[C@H](c4ccc(Cl)c(Cl)c4)C3(Cl)Cl)ccc2Cl)C1 (relative stereo) [Molecule F36, trans-2-Chloro-N-(3-cyanocyclopentyl)-5-(2,2-dichloro-3-(3,4-dichlorophenyl)cyclopropanecarboxamido)benzamide] here?
Its mortality at 50 µg/cm2 is 50 to 100%.

What about the mortality at 50 µg/cm2 [2] of the same molecule?
The mortality at 50 µg/cm2 was 50 to 100%.

And the “YFM % Control (or Mortality) rating” value [3]?
The value was “B (More than 0-Less than 80)”.

With C=Cc1ccc([C@H]2[C@H](C(=O)Nc3ccc(Cl)c(C(=O)NC4(C#N)CC4)c3)C2(Cl)Cl)cc1Cl (relative stereo) [Molecule F67, trans-2-chloro-N-(1-cyanocyclopropyl)-5-(2,2-dichloro-3-(3-chloro-4-vinylphenyl)cyclopropane-1-carboxamido)benzamide] as the molecule, how does the mortality at 50 µg/cm2 [1] read?
Its mortality at 50 µg/cm2 is 50 to 100%.

And the mortality at 50 µg/cm2 [2]?
The mortality at 50 µg/cm2 was 50 to 100%.

What about the “YFM % Control (or Mortality) rating” value [3] of the same molecule?
Its value is “A (80-100)”.

Nc1ccc([C@H]2[C@H](C(=O)Nc3ccc(Cl)c(C(=O)NC4CC(F)(F)C4)c3)C2(Cl)Cl)cc1 (relative stereo) [Molecule F70, trans-5-(3-(4-aminophenyl)-2,2-dichlorocyclopropane-1-carboxamido)-2-chloro-N-(3,3-difluorocyclobutyl)benzamide] was tested. Which mortality at 50 µg/cm2 [1] did it give?
Its mortality at 50 µg/cm2 is 0 to 50%.

And the mortality at 50 µg/cm2 [2]?
Its mortality at 50 µg/cm2 is 50 to 100%.

What about the “YFM % Control (or Mortality) rating” value [3] of the same molecule?
The value was “D (No activity noticed in this bioassay)”.

N#CC1(NC(=O)c2cc(NC(=O)[C@H]3[C@H](c4cc(Cl)cc(Cl)c4)C3(Br)Br)ccc2Cl)CC1 (relative stereo) [PF30, trans-2-Chloro-N-(1-cyanocyclopropyl)-5-(2,2-dibromo-3-(3,5-dichlorophenyl)-cyclopropane-1-carboxamido)benzamide] was tested. Which mortality at 50 µg/cm2 [1] did it give?
Its mortality at 50 µg/cm2 is 50 to 100%.

What about the mortality at 50 µg/cm2 [2] of the same molecule?
Its mortality at 50 µg/cm2 is 50 to 100%.

And the “YFM % Control (or Mortality) rating” value [3]?
The value was “D (No activity noticed in this bioassay)”.

How did the mortality at 50 µg/cm2 [1] turn out when N#CC1(NC(=O)c2cc(NC(=O)[C@H]3[C@H](c4cc(Cl)cc(Br)c4)C3(Cl)Cl)ccc2Cl)CC1 (relative stereo) [PF4, trans-5-(3-(3-Bromo-5-chlorophenyl)-2,2-dichlorocyclopropane-1-carboxamido)-2-chloro-N-(1-cyanocyclopropyl)benzamide] was run?
Its mortality at 50 µg/cm2 is 50 to 100%.

And the mortality at 50 µg/cm2 [2]?
Its mortality at 50 µg/cm2 is 50 to 100%.

And the “YFM % Control (or Mortality) rating” value [3]?
The value was “A (80-100)”.

What does the source list for CN(C(=O)c1cc(NC(=O)[C@H]2[C@H](c3ccc(Cl)c(Cl)c3)C2(Cl)Cl)ccc1Cl)C1(C#N)CC1 (relative stereo) [PF22, trans-2-Chloro-N-(1-cyanocyclopropyl)-5-(2,2-dichloro-3-(3,4-dichloro-phenyl)cyclopropane-1-carboxamido)-N-methylbenzamide]?
mortality at 50 µg/cm2 [1]: 50 to 100%; mortality at 50 µg/cm2 [2]: 50 to 100%; YFM % Control (or Mortality) rating [3]: B (More than 0-Less than 80)

With O=C1CC(NC(=O)c2cc(NC(=O)[C@H]3[C@H](c4cc(Cl)cc(Cl)c4)C3(Cl)Cl)ccc2Cl)C1 (relative stereo) [Molecule F68, trans-2-chloro-5-(2,2-dichloro-3-(3,5-dichloro-phenyl)cyclopropane-1-carboxamido)-N-(3-oxocyclobutyl)benzamide] as the molecule, how does the mortality at 50 µg/cm2 [1] read?
Its mortality at 50 µg/cm2 is 50 to 100%.

And the mortality at 50 µg/cm2 [2]?
Its mortality at 50 µg/cm2 is 50 to 100%.

What about the “YFM % Control (or Mortality) rating” value [3] of the same molecule?
Its value is “A (80-100)”.

How did the mortality at 50 µg/cm2 [1] turn out when N#CC1(NC(=O)c2cc(NC(=O)[C@H]3[C@H](c4ccc(Cl)c(C(F)F)c4)C3(Cl)Cl)ccc2Cl)CC1 (relative stereo) [Molecule F86, trans-2-Chloro-N-(1-cyanocyclopropyl)-5-(2,2-dichloro-3-(4-chloro-3-(difluoro-methyl)phenyl)cyclopropane-1-carboxamido)benzamide] was run?
The mortality at 50 µg/cm2 was 50 to 100%.

What about the mortality at 50 µg/cm2 [2] of the same molecule?
The mortality at 50 µg/cm2 was 50 to 100%.

And the “YFM % Control (or Mortality) rating” value [3]?
The value was “A (80-100)”.

Which mortality at 50 µg/cm2 [1] does the source give for N#CC1(NC(=O)c2cc(NC(=O)[C@H]3[C@H](c4cc(F)cc(C(F)F)c4)C3(Cl)Cl)ccc2Cl)CC1 (relative stereo) [Molecule F87, trans-2-Chloro-N-(1-cyanocyclopropyl)-5-(2,2-dichloro-3-(3-(difluoromethyl)-5-fluorophenyl)cyclopropane-1-carboxamido)benzamide] here?
The mortality at 50 µg/cm2 was 50 to 100%.

And the mortality at 50 µg/cm2 [2]?
Its mortality at 50 µg/cm2 is 50 to 100%.

What about the “YFM % Control (or Mortality) rating” value [3] of the same molecule?
Its value is “A (80-100)”.

Which results are given for COCC(=O)N1CC(NC(=O)c2cc(NC(=O)[C@H]3[C@H](c4cc(Cl)cc(Cl)c4)C3(Cl)Cl)ccc2Cl)C1 (relative stereo) [PF14, trans-2-Chloro-5-(2,2-dichloro-3-(3,5-dichlorophenyl)cyclopropane-1-carboxamido)-N-(1-(2-methoxyacetyl)azetidin-3-yl)benzamide]?
mortality at 50 µg/cm2 [1]: 50 to 100%; mortality at 50 µg/cm2 [2]: 50 to 100%; YFM % Control (or Mortality) rating [3]: A (80-100)

Which mortality at 50 µg/cm2 [1] does the source give for N#CC1(NC(=O)c2cc(NC(=O)[C@H]3[C@H](c4ccc(F)c(C(F)F)c4)C3(Cl)Cl)ccc2Cl)CC1 (relative stereo) [Molecule F88, trans-2-Chloro-N-(1-cyanocyclopropyl)-5-(2,2-dichloro-3-(3-(difluoromethyl)-4-fluorophenyl)cyclopropane-1-carboxamido)benzamide] here?
The mortality at 50 µg/cm2 was 50 to 100%.

And the mortality at 50 µg/cm2 [2]?
The mortality at 50 µg/cm2 was 50 to 100%.

What about the “YFM % Control (or Mortality) rating” value [3] of the same molecule?
The value was “A (80-100)”.

With O=C(NC1(C(=O)NCC(F)(F)F)CC1)c1cc(NC(=O)C2C(c3cc(Cl)cc(Cl)c3)C2(Cl)Cl)ccc1Cl (stereo not drawn) [PF42, trans-2-Chloro-5-(2,2-dichloro-3-(3,5-dichlorophenyl)cyclopropane-1-carbox-amido)-N-(1-((2,2,2-trifluoroethyl)carbamoyl)cyclopropyl)benzamide] as the molecule, how does the mortality at 50 µg/cm2 [1] read?
Its mortality at 50 µg/cm2 is 50 to 100%.

And the mortality at 50 µg/cm2 [2]?
Its mortality at 50 µg/cm2 is 50 to 100%.

And the “YFM % Control (or Mortality) rating” value [3]?
The value was “A (80-100)”.
